Results: PMC10878790 (The Journal of Biological Chemistry, 2024)
Like-named read-outs stand apart in the source and are kept apart here.

Tests used:
NIH-3T3 = format: cell-based, murine; settings: MTT, 48 hours; normal cells
Procedure: (§1) MDA-MB-231, MCF-7, DU-145, PC-3, and NIH-3T3 cell lines were procured from the American Type Culture Collection and used within ten consecutive passages to ensure consistent cell behavior. MDA-MB-231, MCF-7, and NIH-3T3 cells were maintained at 37 °C and 5% CO2 in Dulbecco's modified Eagle's medium (DMEM) high glucose (Hyclone) supplemented with 10% fetal bovine serum (FBS) and 1% Antibiotic-Antimycotic (Gibco), while DU-145 and PC-3 cells were grown in RPMI-1640 supplemented with the same concentration of FBS and Antibiotic-Antimycotic. The media was replenished every 2 days. Cells were checked for mycoplasma at regular intervals using a PCR-based Mycoplasma detection kit plasmocin prophylactic (InvivoGen). In all experiments, cells were maintained in serum-free DMEM for 6 h before peptide treatment. Peptide treatment was done in the media containing 0.1% fetal bovine serum for 48 h in all the experiments unless otherwise stated.
(§2) Cell viability was determined by 3-[4,5-dimethylthiazol-2-yl]-2,5 diphenyl tetrazolium bromide (MTT) assay as described earlier ([52]). ProTox-II "Prediction of Toxicity of Chemicals" web server was used for toxicology assessment ([19]). See the Supporting Information for full experimental details.
(§3) Full Experimental Method for Cell Viability Assay:
(§4) Cell viability of murine NIH- 3T3 cells, as well as MDA- MB -231 , MC F-7, PC- 3, and DU-145 cells, wa s assessed through the MT T assay as described previously(1). Approximately
(§5) 5000 cells per well were seeded in a 96-well plate and allowed to incubate overnight for attachment. Following attachment, the growth medium was replaced wit h a fresh medium
(§6) containing serial dilutions of peptides. The cells we re then incubated for 48 hours in a 5% CO2 incubator . After incubation, 10 μl of a 5 mg/mL MT T solution was introduced to each
(§7) well and left to incubate for an additional 2 hours . Subsequently, the entire medium, along wit h the MT T solution, was aspirated, and the remaining formazan crystals were dissolved
(§8) in 200 μl of DMSO. The absorbance was measured at 595 nm using a Biotek Synergy 2 Plate Reader. […]
(§9) ProTox-II "Prediction of Toxicity of Chemicals" we b server was used for toxicology assessment. […]

MDA-MB-231 cells [1] = assay: Wound healing assay; format: cell-based; settings: for inhibition of migration: equimolar peptide concentrations, compared to untreated cells
Procedure: (§10) The wound healing assay was performed using two breast cancer cell lines, MDA-MB-231 and MCF-7, and two prostate cancer cell lines, PC-3 and DU-145, to evaluate the antimigratory capacity of the peptides. […] The cells were grown to approximately 80% confluency in 12-well tissue culture plates, and a cell-free area was created by scraping the monolayer. The peptides were added, and the cells were incubated at 37 °C with 5% CO2 for 24 h. Wound closure was assessed by imaging the wounds at 0 and 24 h, and the wound areas were quantified using ImageJ software (https://imagej.net/ij/). In the transwell invasion assay, MDA-MB-231 cells were serum starved for 4 h followed by a pretreatment with increasing concentrations of each peptide in a 0.1% serum-containing DMEM for 24 h. The cells were then trypsinized, resuspended in same media for the second treatment of peptides, and counted. Next, 40,000 cells were resuspended in 0.1% serum containing DMEM and added to the upper chamber of Transwell plates (Corning Life Sciences) with a polyethylene terephthalate membrane (6.4 mm diameter, 8 μm pore size). The bottom chambers were filled with DMEM containing 10% FBS as a chemoattractant. The transwell plates were incubated at 37 °C with 5% CO2 for 24 h to allow the invasion of cells through the membrane. The invaded cells on the lower side of the membrane were fixed with 4% paraformaldehyde for 15 min, followed by a PBS wash. The membrane inserts were further fixed with ice-cold methanol for 20 min and stained with 0.25% (w/v) crystal violet. After incubation, the noninvasive cells on the upper surface of the membrane were gently removed using a cotton swab. Random fields were chosen for imaging, and the number of invaded cells was counted using ImageJ software. The results were expressed as the average number of invaded cells compared with the control.

DU-145 cells [2] = assay: Wound healing assay; format: cell-based; settings: scrambled peptides compared to LA3IK and RP-7 at equivalent concentrations
Procedure: as §10

PC-3 cells = assay: Wound healing assay; format: cell-based; settings: scrambled peptides compared to LA3IK and RP-7 at equivalent concentrations
Procedure: as §10

MCF-7 cells = assay: Wound healing assay; format: cell-based; settings: scrambled peptides compared to LA3IK and RP-7 at equivalent concentrations
Procedure: as §10

DU-145 cells [3] = assay: Quantitative real-time PCR of EMT-related genes; format: cell-based; settings: 48 h, 90 μM; for inhibition of the majority of the genes examined in the PCR analysis: except for SNAIL
Procedure: 18S RNA transcript levels were used for internal control. […] E-cadherin and SNAIL are increased and decreased, respectively, when probed with antibodies specific for these proteins as compared to the untreated. […] Densitometry was determined and normalized to total protein or β-actin. Peptide concentration: 90 μM. All the assays were performed in triplicates and the results are expressed as means ± SD. […] EMT, epithelial-mesenchymal transition; MMP-9, matrix metalloproteinase 9; NF-κB, nuclear factor kappa B.
Total RNA was extracted using the TRIzol reagent (Invitrogen). One microgram of total RNA was used for complementary DNA reverse transcription using the Superscript-III First Strand Synthesis kit (Invitrogen) following the manufacturer's protocol. All real-time PCR reactions were performed in duplicates in a 20 μl volume using SYBR Green Master Mix (Invitrogen) in a Realplex2 Mastercycler ep gradient S thermal cycler (Eppendorf). The PCR program followed for all the primers was an activation at 95 °C for 15 min, followed by 40 cycles of 95 °C for 30 s, 54 °C for 1 min, and 72 °C for 45 s. The reaction was finally put to hold at 4 °C. Subsequently, 18S was used as the reference gene for the mRNA levels. Relative change in gene expression was calculated according to the ΔΔCt method ([53], [54]).

PC-3 = format: cell-based; settings: MTT, 48 hours
Procedure: as §1, §2, §3, §4, §5, §6, §7, §8, §9

MCF-7 = format: cell-based; settings: MTT, 48 hours
Procedure: as §1, §2, §3, §4, §5, §6, §7, §8, §9

DU-145 = format: cell-based; settings: MTT, 48 hours
Procedure: as §1, §2, §3, §4, §5, §6, §7, §8, §9

MDA-MB-231 = format: cell-based; settings: MTT, 48 hours
Procedure: as §1, §2, §3, §4, §5, §6, §7, §8, §9

in vitro [4] = settings: plasma
Procedure: CD1 mouse plasma isolated using acidified citrate dextrose was purchased from BioIVT. Each peptide's dimethyl sulfoxide stock was then mixed into the plasma, resulting in a 2 μM final concentration. An aliquot was immediately collected for a zero time point and quenched with an equal volume of acetonitrile containing 0.2% formic acid and 200 ng/ml tolbutamide IS. […] Samples were withdrawn at specific intervals and processed similarly to the zero time point. The supernatant obtained after vortexing and centrifugation was subjected to LC-MS/MS analysis as previously detailed. A control incubation was performed using 0.9% NaCl (saline).

[5] = mouse, in vivo, iv, 5 mg/kg
[6] = Pharmacokinetic studies in CD1 mice; settings: mouse, in vivo, iv, 5 mg/kg
in vivo = settings: female, CD1, mouse, iv, 5 mg/kg
MDA-MB-231 cells [7] = assay: Western blot of MIEN1 signaling pathway proteins; format: cell-based; settings: mean values of immunoblot densitometry
Procedure: Cells were exposed to the peptides and subjected to Western blot analysis with the indicated antibodies. […] Cytoplasmic and nuclear cell lysate extracts of EGF only and EGF plus peptide-treated cells were probed for p65 and p50. Lamin A/C and β-actin were used as nuclear and cytoplasmic loading control respectively. Densitometry was determined with immunoblots (N = 3) and normalized to total protein or β-actin for whole cell lysates and cytoplasmic fraction of peptide-treated MDA-MB-231 cells. In case of nuclear lysates, the immunoblots were normalized with Lamin A/C. Bar graphs are densitometric data (means ± SD). […] EGF concentration: (10 ng/ml); Peptide concentration: 90 μM. EGF, epidermal growth factor; MIEN1, migration and invasion enhancer 1; NF-κB, nuclear factor kappa B.
Western blot analysis was performed according to standard protocols to assess the effects of MIEN1-derived peptides and their analogs on MDA-MB-231 cells and DU-145 cells. Cell lysates were prepared using radioimmunoprecipitation assay buffer and quantified for protein content by bicinchoninic acid method. […] Protein blocking with 5% bovine serum albumin was followed by incubation with primary antibodies specific to various proteins at 4 °C for 8 to 10 h. The membrane was then washed three times in Tris Buffered Saline with Tween 20 and incubated with the appropriate secondary antibody. Protein bands were visualized using the Alpha Innotech chemiluminescent detection system. In case of MDA-MB-231 cells, cytoplasmic and nuclear extracts were isolated to investigate the effects of peptides and/or EGF stimulation. Prior to exposure to the cells, the test peptides (90 μM) were incubated with EGF (10 ng/ml) in media at 4 °C for 15 min. The untreated MDA-MB-231 cells received EGF alone at the same concentration. The isolation of cytoplasmic and nuclear fractions was performed using the Subcellular Protein Fractionation Kit for Cultured Cells from Thermo Fisher Scientific (cat #78840) following the manufacturer's guidelines. For Western blot experiments, 20 μg of purified cytoplasmic and nuclear fraction was used.
Densitometry analysis of Western blot data was conducted using the AlphaView-FluorChem HD2 software of the Alpha Innotech chemiluminescent detection system (https://www.cambridgescientific.com/product/alpha-innotech-fluorchem-hd2-gel-imaging-system). To quantify band intensities, a uniform rectangle was drawn around each band, and background subtraction was applied to determine the total pixel density for each lane. Further calculations, including the determination of the ratio of phosphorylated proteins to total proteins or other loading controls, were carried out using Microsoft Excel. […]

in vitro [8] = settings: microsomes
Procedure: An NADPH-regenerating system (1.7 mg/ml NADP, 7.8 mg/ml glucose-6-phosphate, 6 U/ml glucose-6-phosphate dehydrogenase in 2% w/v NaHCO3/10 mm MgCl2) was added for analysis of Phase I metabolism after heating both the regenerating solution and the sample tubes to 37 °C for 5 min in a 37 °C shaking water bath. The incubation was continued and at varying time points after addition of phase I cofactors, the reaction was stopped by the addition of 0.5 ml of acetonitrile containing IS and formic acid such that the final concentration of IS was 100 ng/ml and acid was 0.1%. Time 0 samples were stopped with the acetonitrile solution while still on ice prior to addition of the NADPH regenerating system and compound, which were subsequently added. The samples were incubated for 10 min at room temperature and then spun at 16,100g for 5 min in a microcentrifuge at 4 °C. The supernatant was analyzed by LC-MS/MS. The method described by McNaney et al. was used with modification for determination of metabolic stability half-life by substrate depletion ([59]). A “% remaining” value was used to assess the metabolic stability of a compound over time. The LC-MS/MS peak area of the incubated sample at each time point was divided by the LC-MS/MS peak area of the time 0 (T0) sample and multiplied by 100. The natural Log (LN) of the % remaining of compound was then plotted versus time (in min) and a linear regression curve was plotted going through y-intercept at LN (100).

Compound	IC50 (NIH-3T3)	inhibition of migration (MDA-MB-231 cells [1])	antimigratory activity in wound healing assay (DU-145 cells [2])	antimigratory activity in wound healing assay (PC-3 cells)	antimigratory activity in wound healing assay (MCF-7 cells)	inhibition of the majority of the genes examined in the PCR analysis (DU-145 cells [3])	IC50 (PC-3)	IC50 (MCF-7)	IC50 (DU-145)	IC50 (MDA-MB-231)	other results
Ac-RPPLVIC-NH2 [RP-7 SCR]	> 600 µM	nonsignificant inhibition	reduced antimigratory activity	reduced antimigratory activity	reduced antimigratory activity	statistically nonsignificant inhibition	128 ± 11.7 µM	150 ± 10.3 µM	137 ± 5.98 µM	156 ± 8.15 µM	expression of SLUG and Zeb-1 (DU-145 cells [3]): reduced expression
CC[C@@H](C)[C@@H](NC(=O)[C@@H](C)NC(=O)[C@@H](CC(C)C)NC(C)=O)C(=O)N[C@H](C)C(=O)N[C@@H](C(=O)N[C@H](CCCCN)C(N)=O)C(C)C [D-LA3IK]	–	–	–	–	–	–	–	–	–	–	remaining at 24 h, 2 μM (in vitro [4]; CD1, mouse): 75%; half-life (in vitro [4]; mouse): > 24 h; AUC(0-t) [5]: 3400 ng·h/mL; Cmax [5]: 3570 ng/mL; clearance [5]: 24.5 mL/min/kg; half-life [5]: 3.58 h; Vd [6]: 1.57 L/kg; MRT (in vivo): 1.03 h; Tmax (in vivo): 4.8 min; Vd (in vivo): 7.58 L/kg; decrease in cell migration compared to L counterpart (MDA-MB-231 cells [1]; identical concentrations of D- and L-isomer): 30.2%; greater inhibition of FAK phosphorylation than L-peptide counterpart (MDA-MB-231 cells [7]): 34.2%; greater inhibition of SRC phosphorylation than L-peptide counterpart (MDA-MB-231 cells [7]): 48.8%; remaining at 2 h, 2 μM (in vitro [8]; male, Institute of Cancer Research/CD-1, mouse, pH 7.5): 100%; half-life (in vitro [8]; mouse): > 2 h
Ac-LAKAVI-NH2 [LA3IK-SCR]	> 600 µM	nonsignificant inhibition	reduced antimigratory activity	reduced antimigratory activity	reduced antimigratory activity	statistically nonsignificant inhibition	319 ± 13.6 µM	133 ± 9.52 µM	352 ± 7.18 µM	243 ± 8.16 µM	gene expression in Zeb-1 and SNAIL (DU-145 cells [3]): statistically diminished
